*1 amine or outer side, *2 acyl side, *3 side chain or, on linkers, in order; H or OH if unused. Where a SMILES comes first, the peptide text is derived from it. [ ]: non-standard residue; d: D form. X1 = O=C1OC(O)c2cc(C[C@H](N[*:1])C(=O)[*:2])ccc21

This test deals with T1, human src SH2 domain (Homo sapiens, UniProt P12931).
T1 construct: made in house; host or cells: E. coli strain AR120 (vector pEA1KnRBS3)
The test can be described thus: ELISA-based binding assay of human src SH2 domain fusion protein and biotinylated pY peptide. Conditions: DET1-DET2-spacer-ek-src SH2 fusion protein; 0.1 uM biotinylated pY peptide; 3 hr at 4° C.; read-out: Activity at cloned human Src SH2 domain (IC50). On the procedure:
The inhibitory activity of compounds at the human src SH2 domain was determined in vitro using the human src SH2 domain expressed as fusion proteins in E. coli.
The fusion protein containing the human SH2 domain was expressed as the general sequence: DET1-DET2-spacer-ek-SH2, where DET1, DET2, spacer, ek and SH2 are as described below. DET1 (“defined epitope tag 1”) (SEQ ID NO: 1) is an 11 amino acid sequence found in the Human Immunodeficiency Virus Type 1 (HIV-1) envelope protein gp120 (or gp160). Monoclonal antibodies to various epitopes of HIV-1 gp120 (or gp160) are known in the art, see, for example U.S. Pat. No. 5,166,050. One preferred example is monoclonal antibody 178.1 (see, e.g., Thiriart et al., J. Immunol., 143:1832-1836 (1989)), which was prepared by immunization of mice with a yeast-expressed HIV-1 gp160 molecule from strain BH10 (Ratner et al., Nature, 313:277-284 (1985)). This tag was used for detection of expression (by Western blot), for purification of the protein (by affinity chromatography), and for configuring assays in which the fusion protein was captured or immobilized using the 178.1 antibody. DET2 is a hexa-histidine sequence tag (SEQ ID NO: 2) which binds to nickel-containing resins and was used for purification purposes. Spacer (SEQ ID NO: 3) was utilized to design a BamH1 restriction site at the indicated position of the construct. […]

T1 sequence (P12931 151-248 limits assumed): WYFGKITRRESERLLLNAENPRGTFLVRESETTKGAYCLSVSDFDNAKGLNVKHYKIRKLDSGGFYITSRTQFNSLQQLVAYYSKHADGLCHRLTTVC

By IC50 is commonly meant the midpoint of a concentration-inhibition curve. With `CC[C@H](C)[C@H](NC(=O)[C@H](CCC(=O)O)NC(=O)[C@H](CCC(=O)O)NC(=O)[C@H](Cc1ccc2c(c1)C(O)OC2=O)NC(C)=O)C(=O)N[C@@H](CCC(=O)O)C(N)=O` (stereo partly drawn) [Compound 1, (S)-alpha-(acetylamino)-1,3-dihydro-3-hydroxy-1-oxo-5-isobenzofuranpropanamido-glutamate-glutamate-isoleucine-glutamate-amine] (Ac-[X1]EEIE-NH2), the IC50 was 250 nM.

For the origin of these results see patent US20030096760A1, “Method of antagonizing the human SRC SH2 domain” (SmithKlineBeecham Corporation, priority 1997, published 2003).
